Measured values taken from patent publication US20250195521A1 (Revolution Medicines, Inc., priority 2020, published 2025).
pIC50: −log10 of the molar value. Like-named read-outs stand apart in the source and are kept apart here.

Columns and labels:
[1] = test system: NCI-H358 cells (K-Ras G12C); assay: CellTiter-Glo cell viability, NCI-H358; assay type: cell-based, human; conditions: Homo sapiens, NCI-H358, 120 h, read-out: H358 Cell Viability IC50
In short: (§1)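 Compounds were dispensed directly onto seeded cells and incubated until day 5, then plates were equilibrated at room temperature for about 30 min before CellTiter-Glo luminescence readout. Signals were normalized as (sample/average DMSO)×100 and fitted with a four-parameter logistic model.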

NRAS G12C = NRAS G12C (Homo sapiens (Human), UniProt P01111+P62937, G12C); assay: Ras-Raf disruption/FRET/MOA assay (BRAF RBD, Cyclophilin A); assay type: biochemical; conditions: read-out: NRAS G12C FRET data IC50
In short: (§2)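 First, 25 μM Cyclophilin A, 12.5 nM His6-Ras-GMPPNP and 50 nM GST-BRAF RBD are mixed with diluted compound at pH 7.3. Next, 3 h at 25° C. Then 10 nM anti-His Eu-W1024 plus 50 nM anti-GST allophycocyanin for 1.5 h before TR-FRET reading.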

KRAS Q61H = KRAS Q61H (Homo sapiens (Human), UniProt P01116+P62937, Q61H); assay: as above; assay type: biochemical
In short: (§3)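 His6-K-Ras-GMPPNP (12.5 nM), GST-BRAF RBD (50 nM) and tagless Cyclophilin A (25 μM) were combined in 25 mM HEPES pH 7.3 with 100 mM NaCl, 5 mM MgCl2, 0.1% BSA and 0.002% Tween20, with compound as a 10-point 3-fold series from 30 μM final, then incubated 3 h at 25° C.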

KRAS G13C = KRAS G13C (Homo sapiens (Human), UniProt P01116+P62937, G13C); assay: as above; assay type: biochemical; conditions: read-out: KRAS G13C FRET IC50
In short: as §3

KRAS G13D = KRAS G13D (Homo sapiens (Human), UniProt P01116+P62937, G13D); assay: as above; assay type: biochemical; conditions: read-out: KRAS G13D FRET data IC50
In short: as §3

NRAS WT = NRAS WT (Homo sapiens (Human), UniProt P01111+P62937); assay: as above; assay type: biochemical
In short: as §2

NRAS Q61R = NRAS Q61R (Homo sapiens (Human), UniProt P01111+P62937, Q61R); assay: as above; assay type: biochemical
In short: as §2

KRAS G12D = KRAS G12D (Homo sapiens (Human), UniProt P01116+P62937, G12D); assay: as above; assay type: biochemical; conditions: read-out: KRAS G12D FRET IC50
In short: as §3

NRAS Q61K = NRAS Q61K (Homo sapiens (Human), UniProt P01111+P62937, Q61K); assay: as above; assay type: biochemical
In short: as §2

KRAS G12S = KRAS G12S (Homo sapiens (Human), UniProt P01116+P62937, G12S); assay: as above; assay type: biochemical; conditions: read-out: KRAS G12S FRET IC50
In short: as §3

KRAS WT = KRAS WT (Homo sapiens (Human), UniProt P01116+P62937); assay: as above; assay type: biochemical; conditions: read-out: KRAS WT FRET data IC50
In short: as §3

KRAS G12C = KRAS G12C (Homo sapiens (Human), UniProt P01116+P62937, G12C); assay: as above; assay type: biochemical; conditions: read-out: KRAS G12C FRET IC50
In short: as §3

KRAS G12V = KRAS G12V (Homo sapiens (Human), UniProt P01116+P62937, G12V); assay: as above; assay type: biochemical; conditions: read-out: KRAS G12V FRET IC50
In short: as §3

[2] = test system: Capan-1 cells (K-Ras G12V); assay: CellTiter-Glo cell viability, Capan-1; assay type: cell-based, human; conditions: Homo sapiens, CAPAN-1, 120 h, read-out: Capan-1 Cell Viability IC50
In short: as §1

NRAS WT, sequence (P01111 whole entry): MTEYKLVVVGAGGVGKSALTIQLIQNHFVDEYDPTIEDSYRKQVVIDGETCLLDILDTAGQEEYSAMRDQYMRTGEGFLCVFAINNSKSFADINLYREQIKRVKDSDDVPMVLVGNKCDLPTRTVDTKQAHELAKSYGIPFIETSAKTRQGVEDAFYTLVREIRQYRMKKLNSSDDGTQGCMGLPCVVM
NRAS WT, sequence (P62937 whole entry): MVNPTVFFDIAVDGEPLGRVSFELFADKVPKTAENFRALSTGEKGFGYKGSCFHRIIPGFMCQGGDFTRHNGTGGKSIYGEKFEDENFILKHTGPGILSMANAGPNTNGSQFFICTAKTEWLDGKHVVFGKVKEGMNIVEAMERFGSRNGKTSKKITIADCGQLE
NRAS G12C, sequence (P01111 whole entry G12C): as the sequence (P01111 whole entry) above, with G12C counted along it
NRAS G12C, sequence (P62937 whole entry): as the sequence (P62937 whole entry) above
KRAS G12S, sequence (P01116 other isoform, or with tags, fused parts or gaps G12S): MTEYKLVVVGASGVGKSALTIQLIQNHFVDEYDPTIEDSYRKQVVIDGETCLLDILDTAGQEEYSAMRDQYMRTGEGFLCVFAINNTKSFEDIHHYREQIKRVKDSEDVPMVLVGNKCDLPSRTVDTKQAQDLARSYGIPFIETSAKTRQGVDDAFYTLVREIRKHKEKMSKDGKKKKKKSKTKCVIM
KRAS G12S, sequence (P62937 whole entry): as the sequence (P62937 whole entry) above
KRAS G13C, sequence (P01116 other isoform, or with tags, fused parts or gaps G13C): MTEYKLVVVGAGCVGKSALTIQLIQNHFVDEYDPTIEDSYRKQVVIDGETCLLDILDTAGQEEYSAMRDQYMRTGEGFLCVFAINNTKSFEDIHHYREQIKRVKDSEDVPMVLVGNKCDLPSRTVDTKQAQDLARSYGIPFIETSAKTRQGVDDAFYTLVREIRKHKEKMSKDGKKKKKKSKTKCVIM
KRAS G13C, sequence (P62937 whole entry): as the sequence (P62937 whole entry) above
KRAS G12D, sequence (P01116 other isoform, or with tags, fused parts or gaps G12D): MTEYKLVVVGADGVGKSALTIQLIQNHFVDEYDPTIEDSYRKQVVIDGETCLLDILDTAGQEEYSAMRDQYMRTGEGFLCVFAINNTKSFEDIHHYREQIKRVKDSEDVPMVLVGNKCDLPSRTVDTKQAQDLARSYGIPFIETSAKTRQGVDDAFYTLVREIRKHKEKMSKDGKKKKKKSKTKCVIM
KRAS G12D, sequence (P62937 whole entry): as the sequence (P62937 whole entry) above
NRAS Q61K, sequence (P01111 whole entry Q61K): as the sequence (P01111 whole entry) above, with Q61K counted along it
NRAS Q61K, sequence (P62937 whole entry): as the sequence (P62937 whole entry) above
KRAS G12V, sequence (P01116 other isoform, or with tags, fused parts or gaps G12V): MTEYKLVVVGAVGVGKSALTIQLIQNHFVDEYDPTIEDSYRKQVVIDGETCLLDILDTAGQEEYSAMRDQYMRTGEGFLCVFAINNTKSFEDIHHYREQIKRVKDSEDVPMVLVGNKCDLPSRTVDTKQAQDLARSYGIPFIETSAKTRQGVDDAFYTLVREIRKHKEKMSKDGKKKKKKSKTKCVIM
KRAS G12V, sequence (P62937 whole entry): as the sequence (P62937 whole entry) above
KRAS WT, sequence (P01116 other isoform, or with tags, fused parts or gaps): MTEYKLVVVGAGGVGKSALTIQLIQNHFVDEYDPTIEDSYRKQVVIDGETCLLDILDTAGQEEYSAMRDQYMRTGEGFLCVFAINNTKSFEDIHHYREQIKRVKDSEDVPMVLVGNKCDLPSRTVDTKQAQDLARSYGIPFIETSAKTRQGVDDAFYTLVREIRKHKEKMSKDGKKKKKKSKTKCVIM
KRAS WT, sequence (P62937 whole entry): as the sequence (P62937 whole entry) above
KRAS G12C, sequence (P01116-2 other isoform, or with tags, fused parts or gaps G12C): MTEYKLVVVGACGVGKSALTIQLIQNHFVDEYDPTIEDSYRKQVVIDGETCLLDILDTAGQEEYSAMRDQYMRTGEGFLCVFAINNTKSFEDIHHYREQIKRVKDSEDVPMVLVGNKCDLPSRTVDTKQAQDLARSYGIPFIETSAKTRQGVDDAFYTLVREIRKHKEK
KRAS G12C, sequence (P62937 whole entry): as the sequence (P62937 whole entry) above
KRAS Q61H, sequence (P01116 other isoform, or with tags, fused parts or gaps Q61H): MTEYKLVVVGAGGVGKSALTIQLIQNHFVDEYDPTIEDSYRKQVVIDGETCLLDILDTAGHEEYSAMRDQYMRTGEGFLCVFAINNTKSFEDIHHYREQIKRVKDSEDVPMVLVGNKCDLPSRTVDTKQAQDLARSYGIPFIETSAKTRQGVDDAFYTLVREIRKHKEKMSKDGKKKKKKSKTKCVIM
KRAS Q61H, sequence (P62937 whole entry): as the sequence (P62937 whole entry) above
NRAS Q61R, sequence (P01111 whole entry Q61R): as the sequence (P01111 whole entry) above, with Q61R counted along it
NRAS Q61R, sequence (P62937 whole entry): as the sequence (P62937 whole entry) above
KRAS G13D, sequence (P01116 other isoform, or with tags, fused parts or gaps G13D): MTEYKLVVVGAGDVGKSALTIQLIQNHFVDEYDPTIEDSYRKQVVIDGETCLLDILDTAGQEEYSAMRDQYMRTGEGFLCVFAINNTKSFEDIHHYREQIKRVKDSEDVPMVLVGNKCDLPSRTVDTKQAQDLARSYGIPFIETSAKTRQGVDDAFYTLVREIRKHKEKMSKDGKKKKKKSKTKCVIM
KRAS G13D, sequence (P62937 whole entry): as the sequence (P62937 whole entry) above

Row | pIC50 ([1]; K-Ras G12C, 5-day treatment) | pIC50 (NRAS G12C) | pIC50 (KRAS Q61H) | pIC50 (KRAS G13C) | pIC50 (KRAS G13D) | pIC50 (NRAS WT) | pIC50 (NRAS Q61R) | pIC50 (KRAS G12D) | pIC50 (NRAS Q61K) | pIC50 (KRAS G12S) | pIC50 (KRAS WT) | pIC50 (KRAS G12C) | pIC50 (KRAS G12V) | Structure (SMILES) | pIC50 ([2]; K-Ras G12V, 5-day treatment) | pIC50 [1] | pIC50 [2]
1 | > 8.00 | 7.00 to 8.00 | 7.00 to 8.00 | 6.00 to 7.00 | 6.00 to 7.00 | 7.00 to 8.00 | 7.00 to 8.00 | 6.00 to 7.00 | 7.00 to 8.00 | 7.00 to 8.00 | 7.00 to 8.00 | 7.00 to 8.00 | 6.00 to 7.00 | CCn1c(-c2cccnc2[C@H](C)OC)c2c3cc(ccc31)-c1csc(n1)C[C@H](NC(=O)[C@H](C(C)C)N1CCC3(COC3)C1)C(=O)N1CCC[C@H](N1)C(=O)OCC(C)(C)C2 [Compound A561] | 7.00 to 8.00 |  | 
2 | 7.00 to 8.00 | 6.00 to 7.00 | 7.00 to 8.00 | 6.00 to 7.00 | 6.00 to 7.00 | 6.00 to 7.00 | 6.00 to 7.00 | 6.00 to 7.00 | 6.00 to 7.00 | 6.00 to 7.00 | 6.00 to 7.00 | 6.00 to 7.00 | 6.00 to 7.00 | CCn1c(-c2cccnc2[C@H](C)OC)c2c3cc(ccc31)-c1csc(n1)C[C@H](NC(=O)[C@H](C(C)C)N(C)C(=O)N(C)[C@@H]1CCN(C)C1)C(=O)N1CCC[C@H](N1)C(=O)OCC(C)(C)C2 [Compound A564] | 6.00 to 7.00 |  | 
3 | 7.00 to 8.00 | 6.00 to 7.00 | 7.00 to 8.00 | 6.00 to 7.00 | 6.00 to 7.00 | 6.00 to 7.00 | 6.00 to 7.00 | 6.00 to 7.00 | 6.00 to 7.00 | 6.00 to 7.00 | 6.00 to 7.00 | 6.00 to 7.00 | 6.00 to 7.00 | CCn1c(-c2cccnc2[C@H](C)OC)c2c3cc(ccc31)-c1csc(n1)C[C@H](NC(=O)[C@H](C(C)C)N(C)C(=O)N1CCCC3(CN(C)C3)C1)C(=O)N1CCC[C@H](N1)C(=O)OCC(C)(C)C2 [Compound A589] | 6.00 to 7.00 |  | 
4 | 6.00 to 7.00 | 6.00 to 7.00 | 6.00 to 7.00 | 6.00 to 7.00 | 6.00 to 7.00 | 6.00 to 7.00 | 6.00 to 7.00 | 6.00 to 7.00 | 6.00 to 7.00 | 6.00 to 7.00 | 6.00 to 7.00 | 6.00 to 7.00 | 5.00 to 6.00 | CCn1c(-c2cccnc2[C@H](C)OC)c2c3cc(ccc31)-c1csc(n1)C[C@H](NC(=O)[C@H](C(C)C)N(C)C(=O)N(C)C1CN(C)C1)C(=O)N1CCC[C@H](N1)C(=O)OCC(C)(C)C2 [Compound A611] | 6.00 to 7.00 |  | 
5 | 7.00 to 8.00 | 7.00 to 8.00 | 7.00 to 8.00 | 7.00 to 8.00 | 7.00 to 8.00 | 7.00 to 8.00 | 6.00 to 7.00 | 6.00 to 7.00 | 6.00 to 7.00 | 7.00 to 8.00 | 7.00 to 8.00 | 7.00 to 8.00 | 7.00 to 8.00 | CCn1c(-c2cccnc2[C@H](C)OC)c2c3cc(ccc31)-c1cc(O)cc(c1)C[C@H](NC(=O)[C@H](C(C)C)N(C)C(=O)[C@@]1(F)CCN(C(=O)OC)C1)C(=O)N1CCC[C@H](N1)C(=O)OCC(C)(C)C2 [Compound A615] | 7.00 to 8.00 |  | 

Row | Structure (SMILES) | pIC50 ([1]; K-Ras G12C, 5-day treatment) | pIC50 (NRAS G12C) | pIC50 (KRAS Q61H) | pIC50 (KRAS G13C) | pIC50 (KRAS G13D) | pIC50 (NRAS WT) | pIC50 (NRAS Q61R) | pIC50 (KRAS G12D) | pIC50 (NRAS Q61K) | pIC50 (KRAS G12S) | pIC50 (KRAS WT) | pIC50 (KRAS G12C) | pIC50 (KRAS G12V) | pIC50 ([2]; K-Ras G12V, 5-day treatment) | pIC50 [1] | pIC50 [2]
6 | CCn1c(-c2cccnc2[C@H](C)OC)c2c3cc(ccc31)-c1cc(cc(C(F)F)c1)C[C@H](NC(=O)[C@H](C(C)C)N(C)C(=O)[C@@H]1OCC[C@@H]1c1ccccc1)C(=O)N1CCC[C@H](N1)C(=O)OCC(C)(C)C2 [Compound A592] |  | 6.00 to 7.00 | 6.00 to 7.00 | 6.00 to 7.00 | 5.00 to 6.00 | 5.00 to 6.00 | 5.00 to 6.00 | 5.00 to 6.00 | 6.00 to 7.00 | 5.00 to 6.00 | 5.00 to 6.00 | 6.00 to 7.00 | 5.00 to 6.00 |  | 6.00 to 7.00 | 5.00 to 6.00
